# In patent US20250352500A1, “USE OF PHENOLIC ACIDS DERIVATIVES IN TREATING ISCHEMIC STROKE” (LANZHOU UNIVERSITY, priority 2022, published 2025):
# What was measured:
# Type in all cases: in vivo, male C57/BL mice
# MCAO model mice [1] = assay: Cerebral infarction volume by TTC staining in MCAO model mice; conditions: for Cerebral infarction volume reduced compared with the model group: mean±SEM
# Description: (§1) Male C57/BL mice weighing 23±1 g were randomly divided into sham operation group (SHAM), model group (MCAO) and drug administration groups (50 mg/kg, 100 mg/kg, 200 mg/kg), with 6 mice in each group. Mice in the SHAM group underwent vascular isolation, but no […] was administered, and no treatment was given before or after surgery. The model group mice were constructed with ischemic MCAO models, and no treatment was given before and after surgery. The drug administration group was treated with compound 2 on the basis of the model group. Mice with a neurological score of 0 after reperfusion and those that died before 72 hours post-surgery were excluded. The drugs were administered through the tail vein at 0, 1, and 2 days after reperfusion. The SHAM group and MCAO group were given equal volumes of saline.
# The cerebral infarction volumes of the sham-hand group (SHAM), model group (MCAO), compound 2 (50 mg/kg) group, compound 2 (100 mg/kg) group, and compound 2 (200 mg/kg) group in Example 2 were detected by TTC staining. […] The cerebral infarction volumes of mice in the different concentration groups were different.
# IL-1β = assay: RT-qPCR of IL-1β mRNA in brain tissue; conditions: 72 h, three days of administration, compound 2 100 mg/kg, P<0.01
# Description: (§2) Grouping and administration method: Male C57/BL mice weighing 23±1 g were randomly divided into sham operation group (SHAM), model group (MCAO), compound 2 group (100 mg/kg), and compound 1 group (50 mg/kg), with 10 mice in each group. Mice in the SHAM group underwent vascular isolation, but no […] was administered, and no treatment was given before or after surgery. The model group mice were constructed with MCAO models and were not treated before and after surgery. The treatment group was treated with compound 2 or compound 1 on the basis of the model group. Mice with a neurological score of 0 after reperfusion and those that died before 72 hours post-surgery were excluded. […]
# (§3) To investigate the effect of compounds on the expression of inflammatory factors after ischemia-reperfusion, this study used immunofluorescence experiments to observe the expression of TNF-α, IL-1β, IL-6, iNOS, and COX2 proteins in brain tissue. […] The concentrations of TNF-α, IL-1β, and IL-6 in brain homogenate were detected by enzyme-linked immunosorbent assay (ELISA), and the expression level of TNF-α protein in brain tissue was detected by Western blot.
# (§4) After 72 hours of ischemia-reperfusion, the mRNA expression levels of TNF-α, IL-1β, IL-6, iNOS, and COX2 in brain tissue were detected and analyzed by RT-qPCR. […]
# MCAO model mice [2] = assay: Survival curve after ischemia-reperfusion; conditions: 100 mg/kg tail vein
# Description: Grouping and administration method: Male C57/BL mice weighing 23±1 g were randomly divided into sham operation group (SHAM), model group (MCAO), compound 2 group (100 mg/kg), and compound 1 group (50 mg/kg), with 10 mice in each group. Mice in the SHAM group underwent vascular isolation, but no […] was administered, and no treatment was given before or after surgery. The model group mice were constructed with MCAO models and were not treated before and after surgery. The treatment group was treated with compound 2 or compound 1 on the basis of the model group. Mice with a neurological score of 0 after reperfusion and those that died before 72 hours post-surgery were excluded. The administration time for animal behavior tests was seven times at 0 h, 1 day, 2 days, 3 days, 4 days, 5 days, and 6 days after reperfusion, while the administration time for other experiments was three times at 0 h, 1 day, and 2 days after reperfusion. The drug was administered through the tail vein, and the sham operation group and model group were given equal amounts of saline.
# At the same time, the weight change and survival rate of mice after ischemia-reperfusion were analyzed.
# MCAO model mice [3] = assay: Zea-Longa neurological function score in MCAO model mice
# Description: as §1
# The neurological function score reflects the neurological injury status of MCAO model mice. After 24 hours of modeling, the neurological function score was performed (refer to the Zea-Longa scoring screening method). Mice with scores of 1-3 were successfully modeled, and those with scores of 0 and 4 were excluded.
# In this experiment, the Zea-Longa scoring method was used to score the sham hand group (SHAM), model group (MCAO), compound 2 (50 mg/kg) group, compound 2 (100 mg/kg) group, and compound 2 (200 mg/kg) group. The main scoring time points were before surgery, day 1, day 2, and day 3.
# IL-6 = assay: RT-qPCR of IL-6 mRNA in brain tissue; conditions: 72 h, three days of administration, compound 2 100 mg/kg, P<0.01
# Description: as §2, §3, §4
structure (smiles),measurement,setting,value
O=C(O)c1cc(OP(=O)(O)O)ccc1OP(=O)(O)O [compound 2],Cerebral infarction volume reduced compared with the model group,"MCAO model mice [1]; 100 mg/kg via tail vein at 0, 1, 2 days after reperfusion, P<0.001",27.17±5.18%
same,Cerebral infarction volume smaller at 100 mg/kg compared with 50 mg/kg,"MCAO model mice [1]; 100 mg/kg vs 50 mg/kg of compound 2, mean±SEM, P<0.05",26.22±4.68%
same,Cerebral infarction volume reduced compared with the model group,"MCAO model mice [1]; 200 mg/kg via tail vein at 0, 1, 2 days after reperfusion, P<0.05",16.19±3.56%
same,IL-1β mRNA expression compared with MCAO group,IL-1β,significantly reduced
same,Mortality rate (survival curve) compared with MCAO group,MCAO model mice [2],significantly improved the mortality rate
same,Zea-Longa neurological score compared with the model group,"MCAO model mice [3]; 24 hours of reperfusion, 50, 100, 200 mg/kg via tail vein",no significant difference
same,Zea-Longa neurological score compared with the model group,"MCAO model mice [3]; after 48 hours, 100 mg/kg via tail vein, P<0.001",most significant decrease
same,Zea-Longa neurological score compared with the model group,"MCAO model mice [3]; after 48 hours, three concentrations (50, 100, 200 mg/kg) via tail vein",decreased significantly
same,Zea-Longa neurological score compared with the model group,"MCAO model mice [3]; after 72 hours of reperfusion, 100 mg/kg via tail vein, P<0.001",significantly decreased
same,Decrease of IL-6 mRNA expression compared with MCAO group,IL-6,51±8%
